Literature values as cited in US20260216238A1, “TETRATHIOMOLYBDIC ACID FOR USE IN TREATING COPPER METABOLISM-ASSOCIATED DISEASES OR DISORDERS (WILSON DISEASE)” (Alexion Pharmaceuticals, Inc., priority 2023, published 2026).

System: patients with Wilson disease (WD)
Details: cited from earlier work; for patients with worsening of neurological symptoms on initiation of treatment: in vivo

| SMILES | patients with severe side effects requiring drug withdrawal (Schilsky et al., 2022) | patients with worsening of neurological symptoms on initiation of treatment | patients with gastric irritation or gastritis (Schilsky et al., 2022) | hepatic treatment failure (long-term follow-up (Weiss et al., 2011)) |
| --- | --- | --- | --- | --- |
| CC(C)(S)[C@@H](N)C(=O)O [penicillamine, (2S)-2-amino-3-methyl-3-sulfanylbutanoic acid] | approximately 30% | approximately 25% | – | – |
| NCCNCCNCCN [trientine, N′-[2-(2-aminoethylamino)ethyl]ethane-1,2-diamine] | – | approximately 25% | – | – |
| [Zn] [zinc] | – | – | ~ ⅓ | 14/88 |
